As a reminder, the thermodynamic solubility is the concentration in solution at equilibrium with solid.

A short description of one data set: physchem. The note with it: water.
The conditions of data set [1]: gastric pH range of 1-2, aqueous solution; cited from earlier work.
For data set [2], the system named is patients with various muscular dystrophies. The note with it: supplemented for 8 weeks; cited from earlier work.
The test system of the next data set is brain dopamine. The settings on record: rats, diet supplemented for 2 weeks; 70% depletion in nonsupplemented rodents; cited from earlier work.
For another data set, the system named is GP3A transgenic mice. The note with it: creatine supplementation; cited from earlier work.

Structures are written as SMILES. ≈ marks a conversion by molar mass, not a printed value. Where two headings read alike, the source gives them in different places.

With `CN(CC(=O)OCc1ccccc1)C(=N)N` [Creatine Benzyl Ester, creatine benzyl ester], in the data set “physchem”, the thermodynamic solubility amounted to 89.3 mg/mL (≈ 403 mM).

As for `CCOC(=O)CN(C)C(=N)N` [Creatine Ethyl Ester, creatine ethyl ester], the thermodynamic solubility in “physchem” stood at 206 mg/mL (≈ 1290 mM).

With `CN(CC(=O)O)C(=N)N` [Creatine], in “Partition coefficient”, the “partition coefficient” value was found to be 0.015. For the same compound, in data set [1], the “creatinine/creatine ratio at equilibrium” value is “greater than or equal to 30”. In addition, in data set [2], the “improvement in neuromuscular symptom score” value is reported as 10% and the increase in strength is 3%. The “reduction in brain dopamine” value with brain dopamine is given as 10%. Also, the increase of life-span entry in the data set with GP3A transgenic mice is “up to 26 days”.

Regarding `CN(CC(=O)O)C(=N)N.O` [creatine monohydrate], the partition coefficient in “Partition coefficient” (studies in the laboratory) is on record as 0.015±0.007.

Source of the values: patent US20030212136A1 (priority 2003, published 2003).
